Source: patent US8916212B2, “Skin whitening composition containing chia seed extract” (Access Business Group International LLC, priority 2011, dated 2014)

How the values were obtained:
[1] = test system: Melan-a murine melanocytes; assay: Melanin inhibition assay; assay type: cell-based; details: melan-a cells; for reduction in melanin content: 100 μg/ml in 0.36% pentylene glycol:0.036% DMSO, FIG. 3
Procedure: (§1) Melan-a murine melanocytes (Wellcome Trust Functional Genomics Cell Bank, St. George Hospital, London, UK) were plated one day prior to treatment in 24 well plates at a density of 5×10^4 cells per well in 1 ml of melan-a cell medium (RPMI-1640, 10% Fetal Bovine Serum (FBS), 1% Penicillin/Streptomycin, 100 μM β-mercaptoethanol, 2 mM L-Glutamine and 200 nM Phorbol 12-myristate 13-acetate) in a 10% CO2 incubator maintained at 37° C. After seeding the cells for 24 hours in triplicate, cells were treated as indicated below. After two days of treatment, the culture media was changed and fresh samples were added and incubated overnight. The cells were initially tested for cell viability and cytoxicity using the WST-1 assay (Roche Applied Science). Following the WST-1 assay, the cells were washed in IX PBS and harvested in extraction buffer for melanin isolation and quantification.
Cells from each well of the 24 well plate were harvested in cell lysis buffer (1% Triton X 100, 50 mM Tris, 2 mM EDTA, 150 mM NaCl, pH 7.5 supplemented with a complete protease inhibitor cocktail). Cell lysates were centrifuged at 20,000 g for 10 min at 4° C. Protein levels in the supernatant were quantified using a Pierce BCA Protein assay kit (Thermo Scientific Corp). Melanin-containing precipitates were washed in 100 μl of ethanol:ether (1:1) for 10 min at room temperature. The ethanol:ether solution was discarded and the melanin-pellets were dissolved in 200 μl of 2N NaOH in 20% DMSO solution and incubated at 70° C. for 60 min. The resulting melanin extract was analyzed by measuring absorbance at 490 nm. The melanin content in each sample was evaluated by normalizing each sample to the total amount of protein.

melan-a cells = assay: WST-1 assay for cell viability and cytotoxicity; assay type: cell-based, murine; details: at the concentrations tested
Procedure: as §1

Row | SMILES | reduction of melanin content ([1]; positive control, FIG. 4 experiment) | cytotoxicity to melan-a cells (WST-1) (melan-a cells) | reduction in melanin content [1]
1 | NC(=S)Nc1ccccc1 [phenylthiourea] | 70% | – | –
2 | CC/C=C\C/C=C\C/C=C\CCCCCCCC(=O)O [α-linolenic acid] | – | not cytotoxic | comparatively minor reductions
3 | CCCCC/C=C\C/C=C\CCCCCCCC(=O)O [linoleic acid] | – | not cytotoxic | comparatively minor reductions
